In patent US4666908A, “5-Substituted pyrazolo[4,3-d]pyrimidine-7-ones and methods of use” (Warner-Lambert Company, priority 1985, dated 1987):
Where two headings read alike, the source gives them in different places.

What was measured:
adenosine A1 receptor = molecular target: T1, adenosine A1 receptor (Rattus norvegicus, UniProt P25099); assay: Adenosine Receptor Binding - A1 Receptor Affinity (RBA1), [3H]-N6-cyclohexyladenosine displacement; details: [3H]-CHA 1.0 nM, rat brain membranes, 25° C., one hour; read-out: RBA-1, IC50 for adenosine A1 receptor affinity
T1 construct: Whole brain minus cerebellum and brainstem from male Long Evans rats; from tissue; host or cells: whole brain minus cerebellum and brainstem, male Long Evans rats (membranes)
T1 sequence (P25099 1-326): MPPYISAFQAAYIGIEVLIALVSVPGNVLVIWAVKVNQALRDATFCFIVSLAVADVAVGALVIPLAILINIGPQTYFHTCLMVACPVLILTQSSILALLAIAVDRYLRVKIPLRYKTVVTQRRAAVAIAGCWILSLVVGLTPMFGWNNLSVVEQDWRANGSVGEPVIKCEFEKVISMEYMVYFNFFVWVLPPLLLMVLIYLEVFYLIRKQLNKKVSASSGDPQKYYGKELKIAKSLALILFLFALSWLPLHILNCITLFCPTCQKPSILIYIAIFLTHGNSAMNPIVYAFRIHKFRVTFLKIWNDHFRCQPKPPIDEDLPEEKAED
Method in brief: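 Rat forebrain membranes (whole brain minus cerebellum and brainstem, male Long Evans) washed in 0.05 M Tris-HCl pH 7.7, used at 20 mg/ml wet tissue. Bound [3H]-N6-cyclohexyladenosine measured by filtration and scintillation counting; Hill coefficient by log-plot regression, Bmax from Scatchard plot.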

Type 1 Phosphodiesterase = assay: Phosphodiesterase (PDE) Inhibition, Type 1 Phosphodiesterase; format: biochemical, bovine (coronary arteries); details: Type 1 PDE, at 10^-5 M
Method in brief: (§1)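 PDEs isolated from bovine coronary artery by DEAE-cellulose chromatography, fractions typed by cAMP/cGMP hydrolysis ± calmodulin/CaCl2. Assay in 40 mM Tris-HCl (pH 8.0), 5 mM MgCl, 4 mM 2-mercaptoethanol with 1.0 μM ^3H-cyclic AMP or ^3H-cyclic GMP; final DMSO 1.25% (smooth muscle) or 2.5% (cardiac, platelet).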

[1] = system: pentobarbital-anesthetized dog; assay: In Vivo Myocardial Inotropic Activity in Anesthetized Dog (CVAD); design: species or system dog (adult mongrel); details: Canis lupus familiaris, iv; for change in vivo at 0.1 mg/kg: 0.10 mg/kg IV; for change in vivo at 0.3 mg/kg: 0.30 mg/kg IV; for change in vivo at 1 mg/kg: 1.00 mg/kg IV; for change in vivo at 3.1 mg/kg: 3.10 mg/kg IV
Method in brief: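 Adult mongrel dogs under pentobarbital anaesthesia (35 mg/kg IV, then 3.5 mg/kg/hour infusion), breathing spontaneously; increasing compound doses given IV via femoral vein, each over one minute. LV dP/dt max, heart rate (lead II ECG) and aortic pressure recorded by catheter transducers against ≥30 min control baseline; vehicle controls as needed.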

Type 3 Phosphodiesterase = assay: Phosphodiesterase (PDE) Inhibition, Type 3 Phosphodiesterase; format: biochemical, bovine (coronary arteries); details: Type 3 PDE, at 10^-5 M, substrate 3H-cAMP 1.0 μM
Method in brief: as §1

[2] = read-out: Percent Change Blood Pressure
[3] = read-out: Percent Change Heart Rate
[4] = read-out: Percent Change Myocardial Contractility

## Cc1nn(C)c2c(=O)[nH]c(-c3cccc([N+](=O)[O-])c3)nc12 [Example 13, 1,3-Dimethyl-5-(3-nitrophenyl)pyrazolo[4,3-d]pyrimidine-7-one]
Adenosine A1 receptor
  IC50: 1200 nM
Type 1 Phosphodiesterase; substrate 3H-cAMP 1.0 μM
  % Inhibition of hydrolysis of 3H-cAMP: 30%
Type 1 Phosphodiesterase; substrate 3H-cGMP 1.0 μM
  % Inhibition of hydrolysis of 3H-cGMP: 18%
[1]; [2]
  change in vivo at 0.1 mg/kg: -2%
  change in vivo at 0.3 mg/kg: -4%
  change in vivo at 1 mg/kg: -7%
  change in vivo at 3.1 mg/kg: -12%
[1]; [3]
  change in vivo at 0.1 mg/kg: 2%
  change in vivo at 0.3 mg/kg: 4%
  change in vivo at 1 mg/kg: -3%
  change in vivo at 3.1 mg/kg: -3%
[1]; [4]
  change in vivo at 0.1 mg/kg: 6%
  change in vivo at 0.3 mg/kg: 5%
  change in vivo at 1 mg/kg: -7%
  change in vivo at 3.1 mg/kg: 6%
[1]; 10.00 mg/kg IV, read-out: Percent Change Myocardial Contractility
  change in vivo at 10 mg/kg: 101%
Type 3 Phosphodiesterase
  % Inhibition of hydrolysis of 3H-cAMP: 50%
